Experimental data published in patent US20100168031A1, “Lat peptides and their use in assays for identifying immunosuppressants” (priority 2000, published 2010).
Numbered stars: 1 amine (or outer) side, 2 acyl side, 3 side chain; on linkers, the order of the positions; unused ones are H or OH. Peptide text beside a SMILES is read from it. Suc = O=C(CCC(=O)[*:2])[*:1]

Each molecule was assayed against T1, ZAP-70 (Homo sapiens, UniProt P43403) (assay: Phosphorylation of compounds of formula I by ZAP-70 measured in a competitive assay (Example C5)). Settings: non-biotinylated peptide competing with biotinylated SEQ ID NO:12; Lck-activated ZAP-70, PP2 added, 4 hours at RT; read-out: IC50, inhibition of the phosphorylation of SEQ ID NO:12 by ZAP-70.
T1 construct: A nucleic acid encoding full-length human ZAP-70 (GenBank #L05148); hexa-histidine (N); made in house; host or cells: Sf9 insect cells (baculovirus)
T1 sequence (P43403 1-619): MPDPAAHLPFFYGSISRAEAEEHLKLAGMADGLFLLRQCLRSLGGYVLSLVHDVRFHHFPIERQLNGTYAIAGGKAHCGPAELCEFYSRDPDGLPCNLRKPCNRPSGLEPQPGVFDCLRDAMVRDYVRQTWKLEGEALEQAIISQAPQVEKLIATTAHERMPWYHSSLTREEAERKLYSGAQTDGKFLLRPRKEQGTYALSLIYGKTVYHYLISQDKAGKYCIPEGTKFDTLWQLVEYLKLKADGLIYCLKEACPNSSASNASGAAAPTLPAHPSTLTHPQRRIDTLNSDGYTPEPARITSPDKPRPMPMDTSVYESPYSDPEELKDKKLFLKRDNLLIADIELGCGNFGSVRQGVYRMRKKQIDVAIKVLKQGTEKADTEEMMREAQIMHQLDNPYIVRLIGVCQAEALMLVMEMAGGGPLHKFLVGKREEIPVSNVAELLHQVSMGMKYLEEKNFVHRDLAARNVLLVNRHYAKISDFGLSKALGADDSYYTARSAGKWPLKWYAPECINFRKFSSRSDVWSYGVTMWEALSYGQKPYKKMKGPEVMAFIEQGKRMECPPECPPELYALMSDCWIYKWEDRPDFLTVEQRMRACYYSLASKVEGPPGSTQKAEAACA
Type: biochemical
Procedure: 80 nM ZAP-70 are incubated with 80 nM Lck and 4 μM ATP in ZAP-70 kinase buffer for 1 hour at RT in a siliconized polypropylene tube. Then, the selective Lck inhibitor PP2 (see Example C2) is added (final concentration 1.2 μM) and incubated for further 10 min.
Ten μl of this solution is mixed with 10 μl biotinylated compound of e.g. SEQ ID NO:12 (1 μM) and 20 μl of the non-biotinylated peptides of compounds of formula I, e.g. by SEQ ID NO:21, SEQ ID NO:15, SEQ ID NO:16 or SEQ ID NO:17 (serial dilution 0.28 to 200 μM) and incubated for 4 hours at RT. Termination of the kinase reaction, detection phase and determination of fluorescence is performed as described in Example C1.

Molecule | IC50 [µM]
Ac-DYENLQELN-OH [SEQ ID NO:15, acetyl-Asp-Tyr-Glu-Asn-Leu-Gln-Glu-Leu-Asn-OH] | 0.6 to 21
Ac-EEGAPDYENL-NH2 [SEQ ID NO:16, acetyl-Glu-Glu-Gly-Ala-Pro-Asp-Tyr-Glu-Asn-Leu-NH2] | 0.6 to 21
Ac-EEGAPDYENLQELN-OH [SEQ ID NO:21, acetyl-Glu-Glu-Gly-Ala-Pro-Asp-Tyr-Glu-Asn-Leu-Gln-Glu-Leu-Asn-OH] | 0.6 to 21

Results, then the molecule that gave them:

IC50 [µM] | Molecule
0.6 to 21 | CC(C)C[C@H](NC(=O)[C@H](CC(N)=O)NC(=O)[C@H](CCC(=O)O)NC(=O)[C@H](Cc1ccc(O)cc1)NC(=O)[C@H](CC(=O)O)NC(=O)CCC(=O)O)C(N)=O [SEQ ID NO:22, HOOC-CH2-CH2-CO-Asp-Tyr-Glu-Asn-Leu-NH2] (Suc-DYENL-NH2)
0.6 to 21 | CC(C)C[C@H](NC(=O)[C@H](CC(N)=O)NC(=O)[C@H](CCC(=O)O)NC(=O)[C@H](Cc1ccc(O)cc1)NC(=O)[C@H](CC(=O)O)NCC(=O)O)C(N)=O [SEQ ID NO:23, HOOC-CH2-Asp-Tyr-Glu-Asn-Leu-NH2]
0.6 to 21 | CC(C)C[C@H](NC(=O)[C@H](Cc1ccccc1)NC(=O)[C@H](CCC(=O)O)NC(=O)[C@H](Cc1ccc(O)cc1)NC(=O)[C@H](CC(=O)O)NC(=O)CCC(=O)O)C(N)=O [SEQ ID NO:24, HOOC-CH2-CH2-CO-Asp-Tyr-Glu-Phe-Leu-NH2] (Suc-DYEFL-NH2)
0.6 to 21 | Ac-DYENL-NH2 [SEQ ID NO:17, acetyl-Asp-Tyr-Glu-Asn-Leu-NH2]
